Results taken from patent US20230038623A1, “NOVEL SKIN CARE COMPOSITION” (BEIERSDORF AG, priority 2019, published 2023).

Tests used:
[1] = system: C. acnes strain K8; assay: Evaluation of the minimum inhibitory concentration (MIC) of cosmetic excipients; assay type: cell-based, Cutibacterium acnes; conditions: MIC (% w/vol) at which compound starts interfering with growth, anaerobic, 3 days, 37° C., scored by turbidity
Description: (§1) In microbiology, the MIC is the lowest concentration of a chemical which prevents visible growth of bacterium. The resulted MIC value depends both on the microorganism and the test compound. The MIC is determined by preparing concentrations series of the test compound in vitro, incubating the solutions with the separate batches of cultured bacteria, and measuring the results using agar dilution or broth microdilution. For the experiments with C. acnes strains C3 and K8, media comprising yeast extract soy peptone and dextrose were used. The MIC is determined by turbidity.
(§2) A total of 125 cosmetic excipients were tested for their compatibility with C. acnes strains C3 and K8. Hydrophilic compounds were tested in a 96-well plate liquid broth format, poorly soluble compounds were pre-dissolved in DMSO before dilution in liquid broth and hydrophobic or solid compounds were tested in an agar well diffusion test assay. The different dilutions of the test excipients in media were prepared in Falcon tubes and then distributed in a deep well plate using a multistepper. Each well received 1.2 ml and was subsequently inoculated with 120 μl of C. acnes bacteria suspension (strain C3 and K8). From the deep well plate 200 μl were transferred in each well of a clear 96 well replicate plate. The leftover was discarded. The plates were then incubated anaerobically for 3 days at 37° C. Following incubation, the test plates were visually examined and wells were scored for growth or complete growth inhibition to define the minimum inhibitory concentration.
(§3) These excipients are listed in the below table with their compatibility values for C. acnes strains C3 and K8. The compatibility values represent the MIC value of the listed ingredients with the tested C. acnes strains. At this concentration [% w/vol] the tested compound starts interfering with the growth of the tested strains. The compounds can be used in formulations at concentrations below this concentration.

[2] = system: C. acnes strain C3; assay: as above; assay type: cell-based, Cutibacterium acnes; conditions: MIC (% w/vol) at which compound starts interfering with growth, anaerobic, 3 days, 37° C., scored by turbidity
Description: as §1, §2, §3

Compound | COMPATABILITY VALUE K8 [%] [1] [%] | COMPATABILITY VALUE C3 [%] [2] [%]
CCCCCCC(O)CO (centres unmarked) [caprylyl glycol] | 0.18 | 0.18
ethylhexyl cocoate | 10.00 | 10.00
tocopherol | 1.50 | 1.50
CC(CO)CO [methylpropanediol] | 4.00 | 4.00
